{"source": "patent US12517131B2", "about": "“Methods for labeling eukaryotic cells from a multicellular organism as well as for treating and/or diagnosing a cancer using modified monosaccharide compounds” (DIAMIDEX, priority 2019, dated 2026)", "key": {"[1]": {"test_system": "Macrophage (primary cells)", "assay": "In vitro cytotoxicity of Ara-N3 probe (Annexin V/IP, MTS)", "format": "cell-based, human", "conditions": "tested 1, 10, 50 and 100 mM, 24 h and 48 h", "description": "(§1) The cell lines (as detailed below in the table) were provided by Inserm/Aquiderm transfer cell. Cell culture of cell lines and cell cytoxicity tests were also carried out by Aquiderm transfer cell, in the laboratory of INSERM U1035.\nHuman mononucleated cells were isolated from peripheral blood from 2 different healthy donors by convention established with the Etablissement Frangais du Sang d'Aquitaine. The technique used was Ficoll gradient isolation. Briefly, the blood diluted in a phosphate buffered saline solution (PBS) was deposited on a sucrose solution (Ficoll, Eurobio) and centrifuged in order to separate the different blood elements. Between Ficoll and plasma was established a cell ring composed of monocytes and lymphocytes. This was recovered and washed in PBS for counting on the Malassez cell.\nHuman CD14+monocytes were isolated from […] by magnetic beads coupled to an anti-CD14 antibody (Miltenyi Biotech). The mononuclear cells were incubated for 15 minutes, in PBS buffer, in the presence of a determined concentration of beads depending on the number of cells. […]\nBriefly, after incubation of the cells with the Ara-N3 probe at different concentrations and at different times (24 h and 48 h), the cells were recovered, trypsinized (for adherent cells) and washed in PBS. […] They were then directly analyzed by cytometry after adding 100 μL of labeling buffer. […]"}, "[2]": {"assay": "In vivo non-toxicity of Ara-N3 in nude mice", "design": "species or system NMRI nude mice", "description": "Ten Female NMRI nude mice (6 weeks old, Janvier, Le Genest-Saint Isle, France) were enrolled in this assay. Three were injected intravenously every other day for 8 days (4 injections) with 50 mg/mouse/injection of Ara-N3 for 200 mg cumulative dose, and three other mice were treated for 8 days with 50 mg of Ara-N3 in 8 mL of water consumed per day, for 400 mg cumulative dose. As control groups, four tumor-bearing mice were not treated.\nMice were euthanized and dissected at the end of treatment. Heart, lung, brain, uterus, ovaries, kidney, skeletal muscle, spleen, pancreas, abdominal fat, liver, skin, stomach, colon, caecum, small intestine, mesenteric lymph nodes, axillary lymph nodes, brachial lymph nodes and total blood were harvested and frozen for analyses."}, "[3]": {"test_system": "HACAT (immortalized cell lines)", "assay": "In vitro cytotoxicity of Ara-N3 probe (Annexin V/IP, MTS)", "format": "cell-based, human", "conditions": "tested 1, 10, 50 and 100 mM, 24 h and 48 h", "description": "as §1\n(§2) The cells were cultivated in an oven at 37° C., 5% CO2 and 95% humidity, in different culture media: • either in RPMI 1640 medium supplemented with 10% of decomplemented FCS (Fetal calf serum) and antibiotics penicillin (100 IU/ml) and […] (100 μg/ml), for the pair Monocytes/THP1. • either in DMEM medium supplemented with 10% of decomplemented FCS and antibiotics penicillin (100 IU/ml) and […] (100 μg/ml) for the Hacat/A431 couple.\n(§3) All the cells were seeded in culture plates, either in 96 wells at the density of 1*10^4 cells/well for the MTS proliferation test, either in 24 wells at the density of 5*10^4 cells/well for the Annexin V test/IP test. Then the cells were incubated at 37° C. and 5% CO2 for 24 hours. After 24 hours, the culture medium was changed in all the wells and the cells adhered to the bottom of the wells were rinsed twice in PBS (Eurobio) or centrifuged and washed twice in PBS for the cells in suspension, before being exposed to the Ara-N3 probe at different concentrations: 1, 10, 50 and 100 mM. The cells were incubated at 37° C. and 5% CO2 for 48 hours.\n(§4) This test requires the use of an Annexin V-APC kit (Biolegend) for the detection of apoptosis/necrosis. This test uses the ability of Annexin V to bind to membrane phosphatidylserines (PS) and the intercalating properties of propidium iodide (PI) on DNA.\n(§5) Briefly, after incubation of the cells with the Ara-N3 probe at different concentrations and at different times (24 h and 48 h), the cells were recovered, trypsinized (for adherent cells) and washed in PBS. After counting in trypan blue on the Malassez cell, the cells were incubated in a labeling buffer (100 μL) in the presence of Annexin V-APC (5 μL) and of IP (10 μL) for 15 minutes at room temperature and in the dark. They were then directly analyzed by cytometry after adding 100 μL of labeling buffer. […]"}, "[4]": {"test_system": "THP1 (tumoral cell lines)", "assay": "In vitro cytotoxicity of Ara-N3 probe (Annexin V/IP, MTS)", "format": "cell-based, human", "conditions": "tested 1, 10, 50 and 100 mM, 24 h and 48 h", "description": "as §1, §2, §3, §4, §5"}, "[5]": {"test_system": "A431 (tumoral cell lines)", "assay": "In vitro cytotoxicity of Ara-N3 probe (Annexin V/IP, MTS)", "format": "cell-based, human", "conditions": "tested 1, 10, 50 and 100 mM, 24 h and 48 h", "description": "as §1, §2, §3, §4, §5"}}, "data": [{"smiles": "[N-]=[N+]=NC[C@H]1OC(O)[C@@H](O)[C@@H]1O", "note": "(stereo partly drawn) [Ara-N3, 5-azido-5-deoxy-D-arabinofuranose]", "values": [{"measurement": "Non-toxic concentration of Ara-N3", "setting": "[1]", "value": ">10", "unit": "mM"}, {"measurement": "water consumption of the mice", "setting": "[2]; Ara-N3 in drinking water up to 6.25 mg/mL, 8 days", "value": "did not alter the water consumption"}, {"measurement": "Non-toxic concentration of Ara-N3", "setting": "[2]; In vivo, Nude mouse (mice)", "value": ">1", "unit": "mM"}, {"measurement": "body weight loss", "setting": "[2]; in drinking water, 50 mg in 8 mL per day for 8 days, 400 mg cumulative dose", "value": "did not induce any body weight loss"}, {"measurement": "body weight loss", "setting": "[2]; intravenous injections, 50 mg/mouse/injection every other day for 8 days, 200 mg cumulative dose", "value": "did not induce any body weight loss"}, {"measurement": "Non-toxic concentration of Ara-N3", "setting": "[3]", "value": ">10", "unit": "mM"}, {"measurement": "Non-toxic concentration of Ara-N3", "setting": "[4]", "value": ">10", "unit": "mM"}, {"measurement": "Non-toxic concentration of Ara-N3", "setting": "[5]", "value": ">10", "unit": "mM"}]}]}
